Read-outs that look alike come from different tables or passages of the source.
Tested on: NMDA receptor
Assay: Whole-cell voltage-clamp recording of NMDA-induced currents in cultured hippocampal neurons
Format: cell-based, rats
Conditions: for IC50: estimated from relative inhibition at 100 µM steroid with the logistic equation, apparent Hill coefficient 1.2, 100 µM NMDA; for mean inhibitory effect on NMDA-induced currents: 100 µM steroid, responses elicited by 100 µM NMDA
[1] = relative degree of inhibition by 100 µM steroid of current responses induced by fast application of 100 µM NMDA, cultured hippocampal neurons, holding potential -60 mV
[2] = cultured hippocampal neurons, holding potential -60 mV

Molecule | Inhibition (X) | IC50 (cultured hippocampal neurons) [µM] | Inhibition (X) [1] | mean inhibitory effect on NMDA-induced currents [2] [%] | mean inhibitory effect on NMDA-induced currents (cultured hippocampal neurons, holding potential -60 mV, listed as 5β-pregnenolone sulfate) [%]
20-Oxo-5α-pregnane-3α,7α-diyl 3-Sulfate 7-Acetate Pyridinium Salt [Example 4] | 35.2 | 167 | – | – | –
20-Oxo-5α-pregnane-3α,7α-diyl 3-Sulfate 7-Nicotinate Pyridinium Salt [Example 10] | – | 154 | 37.8 | – | –
20-Oxo-5β-pregnan-3α,7α-diyl 3-Sulfate 7-Acetate Pyridinium Salt [Example 13] | – | 186 | 34.1 | – | –
20-Oxo-5β-pregnane-3α,7α-diyl 3-Sulfate 7-Nicotinate Pyridinium Salt [Example 19] | – | 116 | 46.9 | – | –
CC(=O)O[C@@H]1C[C@H]2C[C@H](OC(=O)CCC(=O)O)CC[C@]2(C)[C@H]2CC[C@]3(C)[C@@H](C(C)=O)CC[C@H]3[C@H]12 [Example 3, 20-Oxo-5α-pregnane-3α,7α-diyl 3-Hemisuccinate 7-Acetate] | – | 384 | 17.4 | – | –
CC(=O)O[C@@H]1C[C@H]2C[C@H](OS(=O)(=O)[O-])CC[C@]2(C)[C@H]2CC[C@]3(C)[C@@H](C(C)=O)CC[C@H]3[C@H]12.[Na+] [Example 5, 20-Oxo-5α-pregnan-3α,7α-diyl 3-Sulfate 7-Acetate Sodium Salt] | – | – | – | 17 | –
CC(=O)O[C@@H]1C[C@@H]2C[C@H](OC(=O)CCC(=O)O)CC[C@]2(C)[C@H]2CC[C@]3(C)[C@@H](C(C)=O)CC[C@H]3[C@H]12 [Example 12, 20-Oxo-5β-pregnane-3α,7α-diyl 3-Hemisuccinate 7-Acetate] | – | 300 | 21.4 | – | –
pregnanolone sulfate [reference compound] | – | – | – | 71.3 ± 5.0 | 71

From patent EP2313424B1, “ANIONIC PREGNANE COMPOUNDS, METHOD FOR THEIR PRODUCING AND USE OF THEM” (Ústav organické chemie a biochemie Akademie ved Ceské …, priority 2008, dated 2010)
